From US8822451B2, “Modulators of ATP-binding cassette transporters” (Vertex Pharmaceuticals Incorporated, priority 2005, dated 2014)

Molecular target: T1, […]F508-CFTR (Homo sapiens, UniProt P13569, DEL508-508)
T1 construct: expressed in transfected cells
Test: Assay results of Table 3: ΔF508-CFTR modulation, membrane potential optical assay (assay format not stated)
Type: cell-based
Details: NIH3T3 mouse fibroblasts stably expressing […]F508-CFTR (optical assays); for Efficacy: efficacy range; for EC50: potency range
From the text: A. Membrane Potential Optical Methods for Assaying […]F508-CFTR Modulation Properties of Compounds
The optical membrane potential assay utilized voltage-sensitive FRET sensors described by Gonzalez and Tsien (See, Gonzalez, J. E. and R. Y. Tsien (1995) “Voltage sensing by fluorescence resonance energy transfer in single cells” Biophys J 69(4): 1272-80, and Gonzalez, J. E. and R. Y. Tsien (1997) “Improved indicators of cell membrane potential that use fluorescence resonance energy transfer” Chem Biol 4(4): 269-77) in combination with instrumentation for measuring fluorescence changes such as the Voltage/Ion Probe Reader (VIPR) (See, Gonzalez, J. E., K. Oades, et al. (1999) “Cell-based assays and instrumentation for screening ion-channel targets” Drug Discov Today 4(9): 431-439).
These voltage sensitive assays are based on the change in fluorescence resonant energy transfer (FRET) between the membrane-soluble, voltage-sensitive dye, DiSBAC2(3), and a fluorescent phospholipid, CC2-DMPE, which is attached to the outer leaflet of the plasma membrane and acts as a FRET donor. Changes in membrane potential (Vm) cause the negatively charged DiSBAC2(3) to redistribute across the plasma membrane and the amount of energy transfer from CC2-DMPE changes accordingly. The changes in fluorescence emission were monitored using VIPR™ II, which is an integrated liquid handler and fluorescent detector designed to conduct cell-based screens in 96- or 384-well microtiter plates.
To identify small molecules that correct the trafficking defect associated with ΔF508-CFTR; a single-addition HTS assay format was developed. The cells were incubated in serum-free medium for 16 hrs at 37° C. in the presence or absence (negative control) of test compound. As a positive control, cells plated in 384-well plates were incubated for 16 hrs at 27° C. to “temperature-correct” […]F508-CFTR. The cells were subsequently rinsed 3× with Krebs Ringers solution and loaded with the voltage-sensitive dyes. To activate […]F508-CFTR, 10 µM forskolin and the CFTR potentiator, genistein (20 µM), were added along with Cl^−-free medium to each well. The addition of Cl^−-free medium promoted Cl^− efflux in response to […]F508-CFTR activation and the resulting membrane depolarization was optically monitored using the FRET-based voltage-sensor dyes.
To identify potentiators of […]F508-CFTR, a double-addition HTS assay format was developed. During the first addition, a Cl^−-free medium with or without test compound was added to each well. After 22 sec, a second addition of Cl^−-free medium containing 2-10 µM forskolin was added to activate […]F508-CFTR. The extracellular Cl^− concentration following both additions was 28 mM, which promoted Cl^− efflux in response to […]F508-CFTR activation and the resulting membrane depolarization was optically monitored using the FRET-based voltage-sensor dyes.
Bath Solution #1: (in mM) NaCl 160, KCl 4.5, CaCl2 2, MgCl2 1, HEPES 10, pH 7.4 with NaOH.
Chloride-free bath solution: Chloride salts in Bath Solution #1 are substituted with gluconate salts.
CC2-DMPE: Prepared as a 10 mM stock solution in DMSO and stored at −20° C.
DiSBAC2(3): Prepared as a 10 mM stock in DMSO and stored at −20° C.
NIH3T3 mouse fibroblasts stably expressing […]F508-CFTR are used for optical measurements of membrane potential. The cells are maintained at 37° C. in 5% CO2 and 90% humidity in Dulbecco's modified Eagle's medium supplemented with 2 mM glutamine, 10% fetal bovine serum, 1× NEAA, […]-ME, 1× pen/strep, and 25 mM HEPES in 175 cm^2 culture flasks. For all optical assays, the cells were seeded at 30,000/well in 384-well matrigel-coated plates and cultured for 2 hrs at 37° C. before culturing at 27° C. for 24 hrs for the potentiator assay. For the correction assays, the cells are cultured at 27° C. or 37° C. with and without compounds for 16-24 hoursB.

T1 sequence (P13569 with tags, fused parts or gaps DEL508-508): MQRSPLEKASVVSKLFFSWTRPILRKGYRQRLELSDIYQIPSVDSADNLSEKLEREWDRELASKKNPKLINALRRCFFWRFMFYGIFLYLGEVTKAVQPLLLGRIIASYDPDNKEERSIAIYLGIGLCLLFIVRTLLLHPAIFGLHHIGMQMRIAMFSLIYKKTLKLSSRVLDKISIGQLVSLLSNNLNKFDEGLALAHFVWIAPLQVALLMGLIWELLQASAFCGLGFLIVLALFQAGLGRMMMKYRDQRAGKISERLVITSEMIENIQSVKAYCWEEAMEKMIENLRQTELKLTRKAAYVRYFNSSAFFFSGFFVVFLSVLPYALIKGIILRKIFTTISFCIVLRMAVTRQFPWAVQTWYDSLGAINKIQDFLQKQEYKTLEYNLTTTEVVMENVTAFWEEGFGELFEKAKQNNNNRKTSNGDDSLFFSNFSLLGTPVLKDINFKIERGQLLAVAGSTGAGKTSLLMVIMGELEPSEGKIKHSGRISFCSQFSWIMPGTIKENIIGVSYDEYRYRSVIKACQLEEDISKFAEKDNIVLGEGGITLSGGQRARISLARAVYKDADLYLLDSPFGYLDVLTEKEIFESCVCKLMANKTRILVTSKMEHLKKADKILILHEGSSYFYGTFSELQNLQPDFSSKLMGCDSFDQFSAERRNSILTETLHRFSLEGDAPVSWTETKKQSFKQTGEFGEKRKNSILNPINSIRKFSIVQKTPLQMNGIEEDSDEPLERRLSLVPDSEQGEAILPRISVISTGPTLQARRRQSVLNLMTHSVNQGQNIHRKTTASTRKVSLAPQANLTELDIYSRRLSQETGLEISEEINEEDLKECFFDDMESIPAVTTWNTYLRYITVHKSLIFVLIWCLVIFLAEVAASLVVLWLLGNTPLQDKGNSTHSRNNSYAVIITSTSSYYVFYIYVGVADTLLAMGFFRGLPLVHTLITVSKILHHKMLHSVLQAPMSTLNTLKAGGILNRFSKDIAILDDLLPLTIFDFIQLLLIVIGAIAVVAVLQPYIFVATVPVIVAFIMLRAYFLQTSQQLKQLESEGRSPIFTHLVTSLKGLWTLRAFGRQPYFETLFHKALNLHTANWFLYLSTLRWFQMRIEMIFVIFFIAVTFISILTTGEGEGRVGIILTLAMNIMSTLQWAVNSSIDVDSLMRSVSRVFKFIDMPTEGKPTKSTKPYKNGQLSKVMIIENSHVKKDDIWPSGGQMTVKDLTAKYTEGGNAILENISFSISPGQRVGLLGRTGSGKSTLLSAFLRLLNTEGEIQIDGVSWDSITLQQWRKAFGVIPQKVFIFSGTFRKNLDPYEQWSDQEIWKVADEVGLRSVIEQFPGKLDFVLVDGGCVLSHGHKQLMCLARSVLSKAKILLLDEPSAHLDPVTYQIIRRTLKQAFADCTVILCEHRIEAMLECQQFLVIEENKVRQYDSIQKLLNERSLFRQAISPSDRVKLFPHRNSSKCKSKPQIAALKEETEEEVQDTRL

EC50 [µM]	SMILES	Efficacy
> 5	CN(C)C(=O)c1cc(-c2ccccc2)nc(N2CCCCCC2)n1 [Compound 1]	++ (++ corresponds to Efficacy between 100 and 50)
> 5	CNC(=O)c1cc(-c2ccccc2)nc(NCc2ccco2)n1 [Compound 2]	++ (++ corresponds to Efficacy between 100 and 50)
> 5	NC(=O)c1cc(-c2ccccc2)nc(N2CC=C(c3ccc(Cl)cc3)CC2)n1 [Compound 3]	++ (++ corresponds to Efficacy between 100 and 50)
> 5	CCN(CCO)c1nc(C(N)=O)cc(-c2ccccc2)n1 [Compound 4]	+++ (+++ corresponds to Efficacy greater than 100)
< 1	CCOc1ccccc1-c1cc(C(N)=O)nc(N(CC)CC)n1 [Compound 5]	+++ (+++ corresponds to Efficacy greater than 100)
1 to 5	NC(=O)c1cc(-c2cccc(F)c2F)nc(N2CCCCC2)n1 [Compound 6]	++ (++ corresponds to Efficacy between 100 and 50)
1 to 5	CCN(C)c1nc(C(N)=O)cc(-c2ccccc2)n1 [Compound 7]	+++ (+++ corresponds to Efficacy greater than 100)
1 to 5	COc1ccc(OC)c(-c2cc(C(N)=O)nc(N3CCCCC3)n2)c1 [Compound 8]	++ (++ corresponds to Efficacy between 100 and 50)
> 5	CN(C)c1nc(C(N)=O)cc(-c2ccccc2)n1 [Compound 9]	++ (++ corresponds to Efficacy between 100 and 50)
> 5	CCN(CC)c1nc(C(N)=O)cc(-c2ccc(C(F)(F)F)cc2)n1 [Compound 10]	++ (++ corresponds to Efficacy between 100 and 50)
1 to 5	Cc1cccc(-c2cc(C(N)=O)nc(N3CCCCC3)n2)c1C [Compound 11]	++ (++ corresponds to Efficacy between 100 and 50)
< 1	CCN(CC)c1nc(C(N)=O)cc(-c2cc(Cl)ccc2OC)n1 [Compound 12]	++ (++ corresponds to Efficacy between 100 and 50)
> 5	CCCCN(CC#N)c1nc(C(N)=O)cc(-c2ccccc2)n1 [Compound 13]	++ (++ corresponds to Efficacy between 100 and 50)
1 to 5	C=CCN(C)c1nc(C(N)=O)cc(-c2ccccc2)n1 [Compound 14]	+++ (+++ corresponds to Efficacy greater than 100)
> 5	COc1cccc(-c2cc(C(N)=O)nc(N3CC=CCC3)n2)c1 [Compound 15]	++ (++ corresponds to Efficacy between 100 and 50)
1 to 5	NC(=O)c1cc(-c2ccccc2)nc(N2CCCCC2)n1 [Compound 16]	++ (++ corresponds to Efficacy between 100 and 50)
1 to 5	CC(C)OC(=O)c1cccc(-c2cc(C(N)=O)nc(N3CCCCC3)n2)c1 [Compound 17]	++ (++ corresponds to Efficacy between 100 and 50)
> 5	CN(Cc1cccnc1)c1nc(C(N)=O)cc(-c2ccccc2)n1 [Compound 18]	++ (++ corresponds to Efficacy between 100 and 50)
1 to 5	CCCCN(CCO)c1nc(C(N)=O)cc(-c2ccccc2)n1 [Compound 19]	++ (++ corresponds to Efficacy between 100 and 50)
< 1	CCOc1ccc(-c2cc(C(N)=O)nc(N(CC)CC)n2)cc1 [Compound 20]	++ (++ corresponds to Efficacy between 100 and 50)
1 to 5	CCN(CC)c1nc(C(N)=O)cc(-c2ccc(C)s2)n1 [Compound 21]	+++ (+++ corresponds to Efficacy greater than 100)
> 5	COc1ccc(-c2cc(C(N)=O)nc(N3CCCCC3)n2)cn1 [Compound 22]	++ (++ corresponds to Efficacy between 100 and 50)

EC50 [µM]	SMILES	Efficacy
1 to 5	CCCN(CCC)c1nc(C(N)=O)cc(-c2ccccc2)n1 [Compound 23]	++ (++ corresponds to Efficacy between 100 and 50)
< 1	CCN(CC)c1nc(C(N)=O)cc(-c2ccccc2Oc2ccccc2)n1 [Compound 24]	++ (++ corresponds to Efficacy between 100 and 50)
> 5	NC(=O)c1cc(-c2ccoc2)nc(N2CCCCC2)n1 [Compound 25]	+ (+ corresponds to Efficacy less than 50)
1 to 5	NC(=O)c1cc(-c2ccccc2)nc(N2CCCC2)n1 [Compound 26]	++ (++ corresponds to Efficacy between 100 and 50)
> 5	NC(=O)c1cc(-c2ccccc2)nc(NCC2CC2)n1 [Compound 27]	++ (++ corresponds to Efficacy between 100 and 50)
> 5	NC(=O)c1cc(-c2ccccc2)nc(N2CCC(C(=O)c3ccc(Cl)cc3)CC2)n1 [Compound 28]	++ (++ corresponds to Efficacy between 100 and 50)
< 1	CCN(CC)c1nc(C(N)=O)cc(-c2ccc(OC(F)(F)F)cc2)n1 [Compound 29]	++ (++ corresponds to Efficacy between 100 and 50)
> 5	CCCNc1nc(C(N)=O)cc(-c2ccccc2)n1 [Compound 30]	++ (++ corresponds to Efficacy between 100 and 50)
> 5	COc1ccc(-c2cc(C(N)=O)nc(N(C)C)n2)cc1 [Compound 31]	+ (+ corresponds to Efficacy less than 50)
> 5	Cc1cccc(-c2cc(C(N)=O)nc(N3CCCCC3)n2)c1 [Compound 32]	++ (++ corresponds to Efficacy between 100 and 50)
1 to 5	NC(=O)c1cc(-c2ccccc2)nc(N2CCSCC2)n1 [Compound 33]	+++ (+++ corresponds to Efficacy greater than 100)
1 to 5	CCCN(CC)c1nc(C(N)=O)cc(-c2ccccc2)n1 [Compound 34]	+++ (+++ corresponds to Efficacy greater than 100)
< 1	CCN(CC)c1nc(C(N)=O)cc(-c2cccc(C(=O)OC)c2)n1 [Compound 35]	+++ (+++ corresponds to Efficacy greater than 100)
1 to 5	CNC(=O)c1cc(-c2ccccc2)nc(N2CCCCCC2)n1 [Compound 36]	+ (+ corresponds to Efficacy less than 50)
> 5	NC(=O)c1cc(-c2ccccc2)nc(N2CCC(Cc3ccccc3)CC2)n1 [Compound 37]	++ (++ corresponds to Efficacy between 100 and 50)
1 to 5	CN(CCc1ccccc1)c1nc(C(N)=O)cc(-c2ccccc2)n1 [Compound 38]	+++ (+++ corresponds to Efficacy greater than 100)
> 5	CCCN(CC1CC1)c1nc(C(N)=O)cc(-c2ccccc2OC)n1 [Compound 39]	+++ (+++ corresponds to Efficacy greater than 100)
> 5	Cc1ccc(-c2cc(C(N)=O)nc(N3CCCCC3)n2)cc1C [Compound 40]	++ (++ corresponds to Efficacy between 100 and 50)
> 5	CNC(=O)c1cc(-c2ccccc2)nc(NCC2CC2)n1 [Compound 41]	+ (+ corresponds to Efficacy less than 50)
> 5	NC(=O)c1cc(-c2ccccc2)nc(N2CCC(O)(c3ccc(Cl)cc3)CC2)n1 [Compound 42]	+ (+ corresponds to Efficacy less than 50)
> 5	NC(=O)c1cc(-c2ccccc2)nc(N2CCCC(CO)C2)n1 (stereo not shown) [Compound 43]	+ (+ corresponds to Efficacy less than 50)
> 5	NC(=O)c1cc(-c2ccccc2)nc(N2CCC3(CC2)OCCO3)n1 [Compound 44]	++ (++ corresponds to Efficacy between 100 and 50)
